Measured values: publication PMC9011347, “Small-Molecule Inhibitors Targeting Lipolysis in Human Adipocytes” (Journal of the American Chemical Society, 2022)

System: HepG2 cells
Assay: LDH-based cytotoxicity assay
Format: cell-based, human
Settings: 24 h, up to a concentration of 100 μM
Procedure: Figure 2 Development and characterization of the human ATGL inhibitor NG-497. (a) Structure and IC50 values of human ATGL inhibitors. (b) Dose-dependent inhibition of human ATGL by respective inhibitors. (c) ATGL activity was determined at the indicated substrate concentrations in the absence and presence of NG-497 (0.5 μM). Ki was determined by nonlinear regression analysis using GraphPad Prism. Lineweaver–Burk analysis of ATGL inhibition is shown in the inset. (d) Toxicity of NG-497 in HepG2 cells was determined after 24 h incubation at indicated concentrations. Cisplatin and DMSO were used as positive and negative controls, respectively. Cytotoxicity was determined using the Roche LDH Kit and calculated as relative LDH release compared to fully lysed cells. (e) Stability of NG-497 was analyzed via ultrahigh-performance liquid chromatography–mass spectrometry (UHPLC-MS) after incubation in human serum for 0 or 3 h at 37 °C. Atglistatin and a chemically related unstable compound were used as controls. […] NG-497 concentrations/well were determined at the indicated time points using UHPLC-MS. […] Statistical significance was determined via t test (*p < 0.05; **p < 0.01; ***p < 0.001) or ANOVA followed by Bonferroni post hoc test (^###p < 0.001). […] The detected 297 lipid species of both groups were analyzed with supervised multivariate analysis OPLS-DA and are shown as a loading plot. […]

CCOc1ccc(-c2cc(OC)cc(C(=O)OC(C)C)n2)cc1 [NG-497]
cytotoxicity (relative LDH release): no toxic effects
